According to PubChem BioAssay AID2060903 (Molecular Pharmacology Branch, DTP, NCI, 2025):

Tested on: 377384-186-R-J1-PDC complex spheroid viability
Test: Anticancer human tumor 377384-186-R-J1-PDC patient-derived pancreatic carcinoma cell line growth inhibition [RAS]
Conditions: for IC50: curve of first compound; for viability, T/C: stronger effect = lower value
Excerpt: RAS pathway inhibitors in Combinations in Complex Spheroids
A high-throughput screen of multi-cell type tumor spheroids was designed to identify active combinations of RAS pathway inhibitors and targeted small molecules. Complex spheroids include a stromal component modeled by human endothelial cells (HUVEC) and fibroblasts modeled by human mesenchymal stem cells (MSCs). The concentration ranges selected for each drug and investigational agent were based upon clinically achievable concentrations if the clinical Cmax of the agent was known.
Compounds. The drugs and investigational agents: abemaciclib (NSC768073), cobimetinib (NSC768068), divarasib (GDC6063, NSC841802), docetaxel (NSC628503), GDC-1971 (RLY-1971, NSC841576), gemcitabine (NSC613327), inavolisib (NSC800729), ipatasertib (NSC767898), KB-0742 (NSC834161), MRTX-1133 (NSC836407), osimertinib (NSC779217), RMC-4630 (NSC839698), RMC-6236 (NSC851965), RMC-6291 (NSC852671), Ro-3306 (NSC812927), sapanisertib (NSC764658), SN-38 (NSC673596), staurosporine (NSC755774), SY5609 (NSC837396), and tovorafenib (DAY101, NSC766906), were obtained from the National Cancer Institute (NCI) Developmental Therapeutics Program Chemical Repository. The FDA-approved anticancer drug set is available from the NCI Developmental Therapeutics Program. […] The stock solutions were prepared in dimethyl sulfoxide (DMSO, Sigma-Aldrich, St. Louis, MO, cat. D2650) at 800-fold the tested concentration and stored at -70 degrees C prior to their use. All drugs and investigational agents were tested over a range starting from a high concentration at or near the clinical Cmax and decreasing in half-log increments. If the clinical Cmax for an agent had not been determined, the highest concentration tested was 10 microM.
Cell Culture. All cells were maintained in an incubator at 37 degrees C and 5% CO2 with 95% humidity. The PDC lines were cultured according to standard operating procedures established by the NCI PDMR. All PDCs were thawed and cultured in Matrigel-coated flasks prepared with a working solution of 1X Ham's F-12 nutrient mix, without supplementation (Invitrogen, Waltham, MA, cat. 11765054), 100 U/mL penicillin-streptomycin (Invitrogen, cat. 15140122), and 2.5% Matrigel (Corning Inc., Corning, NY, cat. 354248) for the first three passages. The 362531-283-R-J2-PDC and 782815-120-R-J1-PDC lines were cultured in 6C/Colon 1B media, which includes advanced DMEM/F-12 (Thermo Fisher Scientific, cat. 12634028), 10 mM HEPES (Thermo Fisher Scientific, cat. 15630080), 1X GlutaMAX supplement (Thermo Fisher Scientific, cat. 35050061), 0.1 mg/mL primocin (InvivoGen, San Diego, CA, cat. ant-pm-2), 10% defined fetal bovine serum, heat inactivated (HyClone Laboratories Inc., Logan, UT, cat. SH30070.03HI), 50% L-WRN conditioned media (ATCC, cat. CRL-3276), 1.25 mM N-Acetyl-L-cysteine (Sigma-Aldrich, cat. A9165), 10 mM nicotinamide (Sigma-Aldrich, cat. N0636), 1X B-27 supplement (Thermo Fisher Scientific, cat. 17504044), 1X N-2 supplement (Thermo Fisher Scientific, cat. 17502048), 50 ng/mL human EGF (Thermo Fisher Scientific, cat. PHG0311), and 10 microM Y-27632 dihydrochloride (Tocris Bioscience, cat. 1254). The K12877-001-R-J1-PDC line was cultured in 6I media, which includes all 6C/Colon 1B media plus 10 ng/mL human FGF-10 (PeproTech, cat. 100-26), 1 ng/mL human FGF-2 (PeproTech, cat. 100-18B), 1 µM prostaglandin E2 (Tocris Bioscience, cat. 2296), […] hydrocortisone (Sigma-Aldrich, cat. H4001), and […] bovine insulin (Sigma-Aldrich, cat. I6634). The K86415-001-R-J1-PDC line was cultured in 6D media, which includes all 6C/Colon 1B media components minus the L-WRN conditioned media. The 485176-168-R4-J1-PDC was cultured in PANC media, which includes all 6C/Colon 1B media plus 100 ng/mL human FGF-10 (PeproTech, cat. 100-26), 500 nM SB-431542 (Selleckchem, cat. S1067), and 10 nM gastrin (Tocris Bioscience, cat. 3006). […]

[1] = second compound 0.0316 µM, first compound 0.0316 µM
[2] = second compound 0.0316 µM, first compound 0.1 µM
[3] = second compound 0.0316 µM, first compound 0.316 µM
[4] = second compound 0.0316 µM, first compound 1 µM
[5] = second compound 0.1 µM, first compound 0.0316 µM
[6] = second compound 0.1 µM, first compound 0.1 µM
[7] = second compound 0.1 µM, first compound 0.316 µM
[8] = second compound 0.1 µM, first compound 1 µM
[9] = second compound 0.316 µM, first compound 0.0316 µM
[10] = second compound 0.316 µM, first compound 0.1 µM
[11] = second compound 0.316 µM, first compound 0.316 µM
[12] = second compound 0.316 µM, first compound 1 µM
[13] = second compound 1 µM, first compound 0.0316 µM
[14] = second compound 1 µM, first compound 0.1 µM
[15] = second compound 1 µM, first compound 0.316 µM
[16] = second compound 1 µM, first compound 1 µM
[17] = second compound 3.16 µM, first compound 0.0316 µM
[18] = second compound 3.16 µM, first compound 0.1 µM
[19] = second compound 3.16 µM, first compound 0.316 µM
[20] = second compound 3.16 µM, first compound 1 µM
[21] = second compound 10 µM, first compound 0.0316 µM
[22] = second compound 10 µM, first compound 0.1 µM
[23] = second compound 10 µM, first compound 0.316 µM
[24] = second compound 10 µM, first compound 1 µM
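Also: spheroids exposed to compounds for seven days before readout.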

## CCN1CCN(Cc2ccc(Nc3ncc(F)c(-c4cc(F)c5nc(C)n(C(C)C)c5c4)n3)nc2)CC1 + C#Cc1c(F)ccc2cc(O)cc(-c3ncc4c(N5CC6CCC(C5)N6)nc(OCC56CCCN5CC(F)C6)nc4c3F)c12
Second compound 0.0316 µM
  IC50: < 3.16 nM
Second compound 0.1 µM
  IC50: < 3.16 nM
Second compound 0.316 µM
  IC50: < 3.16 nM
Second compound 1 µM
  IC50: < 3.16 nM
Second compound 3.16 µM
  IC50: < 3.16 nM
Second compound 10 µM
  IC50: < 3.16 nM
Second compound 0.0316 µM, first compound 0.00316 µM
  viability, T/C: 21%
Second compound 0.0316 µM, first compound 0.01 µM
  viability, T/C: 18.9%
[1]
  viability, T/C: 11.8%
[2]
  viability, T/C: 11.6%
[3]
  viability, T/C: 5.8%
[4]
  viability, T/C: 4.39%
Second compound 0.1 µM, first compound 0.00316 µM
  viability, T/C: 9.77%
Second compound 0.1 µM, first compound 0.01 µM
  viability, T/C: 9.8%
[5]
  viability, T/C: 8.49%
[6]
  viability, T/C: 4.76%
[7]
  viability, T/C: 3.64%
[8]
  viability, T/C: 2.94%
Second compound 0.316 µM, first compound 0.00316 µM
  viability, T/C: 3.83%
Second compound 0.316 µM, first compound 0.01 µM
  viability, T/C: 3.75%
[9]
  viability, T/C: 3.3%
[10]
  viability, T/C: 2.21%
[11]
  viability, T/C: 2.67%
[12]
  viability, T/C: 2.17%
Second compound 1 µM, first compound 0.00316 µM
  viability, T/C: 2.87%
Second compound 1 µM, first compound 0.01 µM
  viability, T/C: 2.26%
[13]
  viability, T/C: 2.11%
[14]
  viability, T/C: 1.55%
[15]
  viability, T/C: 2.1%
[16]
  viability, T/C: 2.53%
Second compound 3.16 µM, first compound 0.00316 µM
  viability, T/C: 1.72%
Second compound 3.16 µM, first compound 0.01 µM
  viability, T/C: 1.78%
[17]
  viability, T/C: 1.26%
[18]
  viability, T/C: 1.41%
[19]
  viability, T/C: 1.98%
[20]
  viability, T/C: 1.76%
Second compound 10 µM, first compound 0.00316 µM
  viability, T/C: 1.13%
Second compound 10 µM, first compound 0.01 µM
  viability, T/C: 1.55%
[21]
  viability, T/C: 0.87%
[22]
  viability, T/C: 0.72%
[23]
  viability, T/C: 0.67%
[24]
  viability, T/C: 0.32%

## C[C@@H](NC(=O)c1ncnc(N)c1Cl)c1ncc(C(=O)Nc2cc(C(F)(F)F)c(Cl)cn2)s1 + C#Cc1c(F)ccc2cc(O)cc(-c3ncc4c(N5CC6CCC(C5)N6)nc(OCC56CCCN5CC(F)C6)nc4c3F)c12
Second compound 0.0316 µM
  IC50: < 31.6 nM
Second compound 0.1 µM
  IC50: < 31.6 nM
Second compound 0.316 µM
  IC50: < 31.6 nM
Second compound 1 µM
  IC50: < 31.6 nM
Second compound 3.16 µM
  IC50: < 31.6 nM
Second compound 10 µM
  IC50: < 31.6 nM
[1]
  viability, T/C: 30.5%
[2]
  viability, T/C: 27.9%
[3]
  viability, T/C: 30%
[4]
  viability, T/C: 31.1%
Second compound 0.0316 µM, first compound 3.16 µM
  viability, T/C: 30.3%
Second compound 0.0316 µM, first compound 10 µM
  viability, T/C: 27.2%
[5]
  viability, T/C: 14.6%
[6]
  viability, T/C: 16.2%
[7]
  viability, T/C: 14.1%
[8]
  viability, T/C: 19.3%
Second compound 0.1 µM, first compound 3.16 µM
  viability, T/C: 16.2%
Second compound 0.1 µM, first compound 10 µM
  viability, T/C: 14.4%
[9]
  viability, T/C: 7.93%
[10]
  viability, T/C: 8.44%
[11]
  viability, T/C: 10.6%
[12]
  viability, T/C: 9.52%
Second compound 0.316 µM, first compound 3.16 µM
  viability, T/C: 11.1%
Second compound 0.316 µM, first compound 10 µM
  viability, T/C: 10.5%
[13]
  viability, T/C: 4.26%
[14]
  viability, T/C: 5.19%
[15]
  viability, T/C: 5.9%
[16]
  viability, T/C: 8.08%
Second compound 1 µM, first compound 3.16 µM
  viability, T/C: 8.4%
Second compound 1 µM, first compound 10 µM
  viability, T/C: 6.52%
[17]
  viability, T/C: 3.23%
[18]
  viability, T/C: 2.84%
[19]
  viability, T/C: 2.97%
[20]
  viability, T/C: 3.77%
Second compound 3.16 µM, first compound 3.16 µM
  viability, T/C: 4.25%
Second compound 3.16 µM, first compound 10 µM
  viability, T/C: 4.87%
[21]
  viability, T/C: 2.04%
[22]
  viability, T/C: 1.21%
[23]
  viability, T/C: 1.76%
[24]
  viability, T/C: 2.5%
Second compound 10 µM, first compound 3.16 µM
  viability, T/C: 3.8%
Second compound 10 µM, first compound 10 µM
  viability, T/C: 1.16%
